Drawing on ChEMBL document CHEMBL3991601, “The target landscape of clinical kinase drugs” (Science, 2017), this text covers Kd for ten compounds.

The structures appear in SMILES notation. Calls of active or inactive are those of the source. Rule as the data show it, for most assays here: actives have a measured Kd and inactives only a lower limit.

The target in assay [1] is Tyrosine-protein kinase ABL2 (Homo sapiens, UniProt P42684).
Assay [2] has as its target T1, Discoidin domain-containing receptor 2 (Homo sapiens, UniProt Q16832).
T1 sequence (Q16832 whole entry): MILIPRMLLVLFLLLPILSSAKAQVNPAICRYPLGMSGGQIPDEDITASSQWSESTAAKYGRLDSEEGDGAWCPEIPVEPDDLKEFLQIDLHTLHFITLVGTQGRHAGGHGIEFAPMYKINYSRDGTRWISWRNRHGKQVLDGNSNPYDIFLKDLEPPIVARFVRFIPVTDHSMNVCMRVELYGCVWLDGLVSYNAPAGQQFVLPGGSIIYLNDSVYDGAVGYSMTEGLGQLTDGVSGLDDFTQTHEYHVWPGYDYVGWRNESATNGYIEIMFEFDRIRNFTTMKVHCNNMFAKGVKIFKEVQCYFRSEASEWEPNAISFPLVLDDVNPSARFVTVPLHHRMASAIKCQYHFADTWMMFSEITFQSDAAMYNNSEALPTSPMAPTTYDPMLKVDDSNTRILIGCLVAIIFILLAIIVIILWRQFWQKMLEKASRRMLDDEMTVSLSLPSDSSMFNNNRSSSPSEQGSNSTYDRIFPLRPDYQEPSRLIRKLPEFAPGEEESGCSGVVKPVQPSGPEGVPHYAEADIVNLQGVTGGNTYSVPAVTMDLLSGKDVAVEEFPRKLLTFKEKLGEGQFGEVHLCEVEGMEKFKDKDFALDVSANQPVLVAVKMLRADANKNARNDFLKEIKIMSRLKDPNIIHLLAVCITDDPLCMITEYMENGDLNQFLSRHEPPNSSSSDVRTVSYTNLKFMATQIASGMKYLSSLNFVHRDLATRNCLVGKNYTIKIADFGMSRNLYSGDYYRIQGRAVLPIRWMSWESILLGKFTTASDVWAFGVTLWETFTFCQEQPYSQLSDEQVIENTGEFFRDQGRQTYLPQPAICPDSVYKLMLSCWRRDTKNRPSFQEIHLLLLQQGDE

Assay [3] addresses T2, Ephrin type-B receptor 4 (Homo sapiens, UniProt P54760).
T2 sequence (P54760 whole entry): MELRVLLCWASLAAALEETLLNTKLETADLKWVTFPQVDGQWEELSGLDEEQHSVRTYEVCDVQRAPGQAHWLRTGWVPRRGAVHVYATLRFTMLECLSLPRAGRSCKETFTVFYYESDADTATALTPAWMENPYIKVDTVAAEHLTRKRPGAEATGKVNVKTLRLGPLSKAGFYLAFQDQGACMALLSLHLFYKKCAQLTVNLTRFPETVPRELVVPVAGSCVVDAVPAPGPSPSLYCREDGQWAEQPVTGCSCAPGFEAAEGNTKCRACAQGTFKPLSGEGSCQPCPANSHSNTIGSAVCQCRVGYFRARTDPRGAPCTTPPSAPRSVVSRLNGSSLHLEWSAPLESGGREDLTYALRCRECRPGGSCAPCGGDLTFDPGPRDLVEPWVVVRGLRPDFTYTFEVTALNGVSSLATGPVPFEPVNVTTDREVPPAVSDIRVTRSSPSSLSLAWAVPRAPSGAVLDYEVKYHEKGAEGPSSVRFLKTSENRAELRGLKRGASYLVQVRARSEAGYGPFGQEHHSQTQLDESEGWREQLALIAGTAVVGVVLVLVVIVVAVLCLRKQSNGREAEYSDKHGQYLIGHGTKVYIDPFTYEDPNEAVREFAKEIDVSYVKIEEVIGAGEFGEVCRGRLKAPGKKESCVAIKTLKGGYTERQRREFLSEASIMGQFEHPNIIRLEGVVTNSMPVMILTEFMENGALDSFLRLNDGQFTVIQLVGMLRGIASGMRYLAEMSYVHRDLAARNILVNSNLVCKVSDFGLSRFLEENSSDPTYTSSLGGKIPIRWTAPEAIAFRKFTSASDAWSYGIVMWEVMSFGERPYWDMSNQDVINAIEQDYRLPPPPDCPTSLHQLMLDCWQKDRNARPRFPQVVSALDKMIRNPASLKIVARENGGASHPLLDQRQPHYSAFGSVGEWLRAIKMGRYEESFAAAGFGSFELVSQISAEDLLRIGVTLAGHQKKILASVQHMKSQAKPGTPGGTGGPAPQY

The target in assay [4] is Serine/threonine-protein kinase/endoribonuclease IRE2 (Homo sapiens, UniProt Q76MJ5).
Assay [5] concerns the target T3, Ferrochelatase, mitochondrial (Homo sapiens, UniProt P22830).
T3 sequence (P22830 whole entry): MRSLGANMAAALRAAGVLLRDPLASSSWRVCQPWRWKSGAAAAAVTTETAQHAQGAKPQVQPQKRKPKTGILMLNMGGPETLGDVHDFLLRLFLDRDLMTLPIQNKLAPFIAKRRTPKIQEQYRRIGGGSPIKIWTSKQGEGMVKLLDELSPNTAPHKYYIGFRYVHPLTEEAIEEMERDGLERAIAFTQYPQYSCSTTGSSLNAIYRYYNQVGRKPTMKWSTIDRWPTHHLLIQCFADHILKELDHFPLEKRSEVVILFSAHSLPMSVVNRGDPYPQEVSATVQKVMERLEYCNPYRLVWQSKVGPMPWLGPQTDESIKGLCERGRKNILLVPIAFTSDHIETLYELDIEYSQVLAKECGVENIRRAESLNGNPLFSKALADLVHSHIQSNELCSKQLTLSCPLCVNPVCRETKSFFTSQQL

Assay [6] deals with T4, Dual specificity mitogen-activated protein kinase kinase 6 (Homo sapiens, UniProt P52564).
T4 sequence (P52564 whole entry): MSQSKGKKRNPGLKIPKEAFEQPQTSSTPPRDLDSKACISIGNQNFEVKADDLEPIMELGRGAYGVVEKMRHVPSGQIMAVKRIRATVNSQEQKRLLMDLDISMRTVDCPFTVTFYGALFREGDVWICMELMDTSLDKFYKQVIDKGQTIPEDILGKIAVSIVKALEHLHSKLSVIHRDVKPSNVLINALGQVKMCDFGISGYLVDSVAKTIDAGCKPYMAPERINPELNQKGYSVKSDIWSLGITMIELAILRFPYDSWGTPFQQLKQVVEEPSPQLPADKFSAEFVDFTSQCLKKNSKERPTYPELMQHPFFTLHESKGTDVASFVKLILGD

Assay [7] has as its target Mitogen-activated protein kinase 8 (Homo sapiens, UniProt P45983).
Assay [8] has as its target Protein kinase C delta type (Homo sapiens, UniProt Q05655).
Assay [9] addresses Receptor-interacting serine/threonine-protein kinase 3 (Homo sapiens, UniProt Q9Y572).
Assay [10] concerns the target DNA topoisomerase 2-alpha (Homo sapiens, UniProt P11388).

For orientation: Kd means the equilibrium constant for the complex coming apart.
Also: in the data inactive means no Kd found up to 30 µM.

Mitogen-activated protein kinase 8, sequence (P45983 whole entry): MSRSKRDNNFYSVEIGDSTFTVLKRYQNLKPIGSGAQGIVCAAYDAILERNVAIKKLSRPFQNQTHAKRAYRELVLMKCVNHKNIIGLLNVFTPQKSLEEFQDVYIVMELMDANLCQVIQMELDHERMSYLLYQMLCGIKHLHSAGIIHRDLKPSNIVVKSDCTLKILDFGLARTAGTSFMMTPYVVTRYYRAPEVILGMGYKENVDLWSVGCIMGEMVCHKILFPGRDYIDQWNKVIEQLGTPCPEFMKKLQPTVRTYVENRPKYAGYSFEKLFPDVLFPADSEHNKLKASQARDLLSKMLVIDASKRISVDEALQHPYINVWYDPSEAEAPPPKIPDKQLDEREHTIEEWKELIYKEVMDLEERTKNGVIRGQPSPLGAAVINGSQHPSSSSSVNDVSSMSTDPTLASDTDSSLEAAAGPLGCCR
Serine/threonine-protein kinase/endoribonuclease IRE2, sequence (Q76MJ5 whole entry): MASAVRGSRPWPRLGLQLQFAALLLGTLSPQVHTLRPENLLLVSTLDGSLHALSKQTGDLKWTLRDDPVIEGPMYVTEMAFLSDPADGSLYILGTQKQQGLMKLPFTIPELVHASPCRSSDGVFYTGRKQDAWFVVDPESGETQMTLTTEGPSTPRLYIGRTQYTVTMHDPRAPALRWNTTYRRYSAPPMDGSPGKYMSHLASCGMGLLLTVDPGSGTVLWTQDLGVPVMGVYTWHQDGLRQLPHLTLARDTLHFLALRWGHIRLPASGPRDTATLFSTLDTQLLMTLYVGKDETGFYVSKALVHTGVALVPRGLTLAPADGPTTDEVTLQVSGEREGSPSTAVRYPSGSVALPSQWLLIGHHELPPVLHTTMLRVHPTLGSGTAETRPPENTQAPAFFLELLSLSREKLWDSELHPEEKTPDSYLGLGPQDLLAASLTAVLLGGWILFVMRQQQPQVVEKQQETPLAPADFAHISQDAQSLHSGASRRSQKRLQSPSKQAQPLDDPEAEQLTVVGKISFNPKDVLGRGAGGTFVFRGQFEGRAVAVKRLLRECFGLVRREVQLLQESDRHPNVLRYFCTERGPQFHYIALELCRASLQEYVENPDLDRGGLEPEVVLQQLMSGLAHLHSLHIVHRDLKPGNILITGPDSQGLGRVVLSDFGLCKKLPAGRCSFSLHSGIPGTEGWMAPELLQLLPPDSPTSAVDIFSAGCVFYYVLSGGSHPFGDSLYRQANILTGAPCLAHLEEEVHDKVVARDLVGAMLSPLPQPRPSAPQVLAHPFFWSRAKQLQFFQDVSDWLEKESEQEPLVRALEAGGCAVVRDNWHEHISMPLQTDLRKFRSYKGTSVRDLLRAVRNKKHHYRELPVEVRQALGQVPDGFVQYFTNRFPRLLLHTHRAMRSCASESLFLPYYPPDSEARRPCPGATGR
Protein kinase C delta type, sequence (Q05655 whole entry): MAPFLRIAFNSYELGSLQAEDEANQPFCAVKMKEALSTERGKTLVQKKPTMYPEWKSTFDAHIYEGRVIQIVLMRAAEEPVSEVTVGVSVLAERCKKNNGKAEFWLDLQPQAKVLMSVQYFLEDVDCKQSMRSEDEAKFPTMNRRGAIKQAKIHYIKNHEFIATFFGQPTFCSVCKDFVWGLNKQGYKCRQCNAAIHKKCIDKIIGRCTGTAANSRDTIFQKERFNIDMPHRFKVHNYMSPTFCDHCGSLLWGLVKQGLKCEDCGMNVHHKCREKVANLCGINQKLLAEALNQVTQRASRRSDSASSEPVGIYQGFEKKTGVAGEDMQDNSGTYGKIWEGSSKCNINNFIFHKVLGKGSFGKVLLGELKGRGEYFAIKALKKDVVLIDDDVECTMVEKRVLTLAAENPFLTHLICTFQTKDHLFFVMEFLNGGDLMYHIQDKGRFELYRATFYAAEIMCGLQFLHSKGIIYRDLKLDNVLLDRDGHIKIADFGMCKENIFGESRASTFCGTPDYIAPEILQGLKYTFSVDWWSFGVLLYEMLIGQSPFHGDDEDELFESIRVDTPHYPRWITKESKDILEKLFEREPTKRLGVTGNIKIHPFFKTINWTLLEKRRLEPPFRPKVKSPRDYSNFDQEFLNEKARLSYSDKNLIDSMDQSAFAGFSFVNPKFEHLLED
DNA topoisomerase 2-alpha, sequence (P11388 whole entry): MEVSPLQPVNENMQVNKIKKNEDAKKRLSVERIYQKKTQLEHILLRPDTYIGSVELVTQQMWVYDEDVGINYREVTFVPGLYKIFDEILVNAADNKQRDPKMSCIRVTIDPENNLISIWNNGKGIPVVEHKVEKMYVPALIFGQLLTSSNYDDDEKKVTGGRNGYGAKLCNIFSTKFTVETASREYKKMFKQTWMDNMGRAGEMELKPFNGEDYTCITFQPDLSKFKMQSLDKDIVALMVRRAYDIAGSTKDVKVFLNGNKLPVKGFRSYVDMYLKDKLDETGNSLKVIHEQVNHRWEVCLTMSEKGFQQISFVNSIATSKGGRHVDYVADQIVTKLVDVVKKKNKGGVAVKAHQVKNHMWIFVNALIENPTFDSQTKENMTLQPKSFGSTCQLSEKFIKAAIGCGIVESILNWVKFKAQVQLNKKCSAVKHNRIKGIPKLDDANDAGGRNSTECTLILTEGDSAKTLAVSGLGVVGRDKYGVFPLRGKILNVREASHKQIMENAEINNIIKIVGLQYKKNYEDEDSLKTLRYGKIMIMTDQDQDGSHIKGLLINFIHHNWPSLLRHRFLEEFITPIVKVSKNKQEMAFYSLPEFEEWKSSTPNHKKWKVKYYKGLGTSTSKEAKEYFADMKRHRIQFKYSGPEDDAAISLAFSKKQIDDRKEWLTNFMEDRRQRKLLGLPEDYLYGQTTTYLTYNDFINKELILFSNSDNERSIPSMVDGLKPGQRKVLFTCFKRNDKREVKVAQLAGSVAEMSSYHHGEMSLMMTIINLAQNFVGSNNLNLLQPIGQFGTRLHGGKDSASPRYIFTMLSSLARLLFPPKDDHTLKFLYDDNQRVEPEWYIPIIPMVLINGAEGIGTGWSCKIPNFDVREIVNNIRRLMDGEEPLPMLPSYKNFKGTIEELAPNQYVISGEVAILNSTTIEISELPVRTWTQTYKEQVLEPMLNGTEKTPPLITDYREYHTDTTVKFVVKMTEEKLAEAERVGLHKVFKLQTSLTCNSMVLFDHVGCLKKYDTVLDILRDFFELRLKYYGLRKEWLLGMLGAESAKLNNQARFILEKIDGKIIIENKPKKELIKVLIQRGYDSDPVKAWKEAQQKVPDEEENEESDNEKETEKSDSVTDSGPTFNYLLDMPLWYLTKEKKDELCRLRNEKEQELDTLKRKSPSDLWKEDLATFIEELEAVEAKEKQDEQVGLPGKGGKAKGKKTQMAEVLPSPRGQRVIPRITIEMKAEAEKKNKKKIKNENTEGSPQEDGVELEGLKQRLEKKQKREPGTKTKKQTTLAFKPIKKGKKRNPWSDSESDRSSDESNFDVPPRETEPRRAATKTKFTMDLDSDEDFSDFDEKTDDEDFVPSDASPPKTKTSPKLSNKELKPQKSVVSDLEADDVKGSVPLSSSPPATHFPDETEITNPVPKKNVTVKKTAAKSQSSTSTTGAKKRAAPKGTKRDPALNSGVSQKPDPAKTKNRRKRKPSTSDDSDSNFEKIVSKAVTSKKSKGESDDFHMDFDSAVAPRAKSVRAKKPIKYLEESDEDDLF
Tyrosine-protein kinase ABL2, sequence (P42684 whole entry, the tested form may be a part): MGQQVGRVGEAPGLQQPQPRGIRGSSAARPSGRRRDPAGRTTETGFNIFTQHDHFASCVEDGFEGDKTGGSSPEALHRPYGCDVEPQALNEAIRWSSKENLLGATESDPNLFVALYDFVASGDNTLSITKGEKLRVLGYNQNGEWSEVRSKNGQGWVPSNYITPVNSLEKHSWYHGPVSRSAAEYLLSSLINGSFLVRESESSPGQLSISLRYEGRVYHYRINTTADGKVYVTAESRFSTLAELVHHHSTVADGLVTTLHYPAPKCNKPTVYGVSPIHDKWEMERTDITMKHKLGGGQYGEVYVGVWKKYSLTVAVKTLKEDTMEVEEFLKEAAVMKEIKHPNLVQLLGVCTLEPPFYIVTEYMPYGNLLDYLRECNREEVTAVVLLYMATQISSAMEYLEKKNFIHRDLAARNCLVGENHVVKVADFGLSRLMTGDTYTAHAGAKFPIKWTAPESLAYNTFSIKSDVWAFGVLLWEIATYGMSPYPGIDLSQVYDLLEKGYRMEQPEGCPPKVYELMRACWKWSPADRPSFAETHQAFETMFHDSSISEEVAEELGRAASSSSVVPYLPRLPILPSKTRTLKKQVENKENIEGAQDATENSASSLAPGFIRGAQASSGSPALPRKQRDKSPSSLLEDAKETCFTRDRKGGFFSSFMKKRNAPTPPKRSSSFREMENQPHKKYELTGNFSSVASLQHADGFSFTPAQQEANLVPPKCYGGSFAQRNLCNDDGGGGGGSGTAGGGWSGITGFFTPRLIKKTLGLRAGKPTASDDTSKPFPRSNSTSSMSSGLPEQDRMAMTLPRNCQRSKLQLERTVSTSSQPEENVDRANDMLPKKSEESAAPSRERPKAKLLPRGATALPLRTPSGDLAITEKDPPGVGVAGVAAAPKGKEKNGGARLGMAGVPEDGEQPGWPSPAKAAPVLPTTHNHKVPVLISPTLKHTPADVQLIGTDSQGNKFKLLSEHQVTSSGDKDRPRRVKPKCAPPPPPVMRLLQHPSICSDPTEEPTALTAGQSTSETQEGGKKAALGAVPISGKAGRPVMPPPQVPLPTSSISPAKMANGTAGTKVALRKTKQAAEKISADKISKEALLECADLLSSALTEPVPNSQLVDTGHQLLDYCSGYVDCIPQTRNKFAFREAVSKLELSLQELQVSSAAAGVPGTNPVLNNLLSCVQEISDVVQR

`O=C(O)[C@]1(Cc2cccc(Nc3nccs3)n2)CC[C@@H](Oc2cccc(Cl)c2F)CC1` [MK-5108]: the equilibrium dissociation constant (Kd) in assay [1] was 0.077 µM (active); in [2], > 30 µM (inactive); in assay [3] it was > 30 µM (inactive); in [4], > 30 µM (inactive); in assay [5] it was > 30 µM (inactive); in assay [6] it was > 30 µM (inactive). For the same compound, the dissociation constant (Kd) in [7] is 1.15 µM (active); in assay [8], > 30 µM (inactive); in assay [9], > 30 µM (inactive); in [10], > 30 µM (inactive).
As to `COc1cc(N2CCC(N3CCN(C)CC3)CC2)ccc1Nc1ncnc(Nc2ccccc2S(=O)(=O)C(C)C)n1` [ASP-3026], the Kd in assay [1], in assay [2], in [3], in assay [4], in assay [5] and in assay [6] was > 30 µM (inactive) throughout. Moreover, the Kd in [7], in assay [8], in assay [9] and in assay [10] was > 30 µM (inactive) throughout.
With `CN1CCC(CNc2ccc3ncc(-c4cccc(OC(F)(F)F)c4)n3n2)CC1` [SGI-1776], the Kd in assay [1], in [2], in assay [3], in assay [4], in [5] and in assay [6] was > 30 µM (inactive) each time. In addition, the Kd in assay [7], in assay [8], in assay [9] and in [10] was > 30 µM (inactive) throughout.
As for `CC(=O)Nc1cccc(-n2c(=O)n(C3CC3)c(=O)c3c(Nc4ccc(I)cc4F)n(C)c(=O)c(C)c32)c1` [TRAMETINIB], the Kd in assay [1], in [2], in assay [3], in assay [4], in assay [5] and in assay [6] was > 30 µM (inactive) throughout. The Kd in [7], in assay [8], in assay [9] and in [10] was > 30 µM (inactive) throughout.
For the compound `Cn1ncc(Cl)c1-c1cc(C(=O)N[C@H](CN)Cc2cccc(F)c2)sc1Cl` [AFURESERTIB], the Kd in [1], in assay [2], in assay [3], in [4], in [5] and in assay [6] was > 30 µM (inactive) throughout. Further, the Kd in assay [7], in assay [8], in [9] and in assay [10] was > 30 µM (inactive) each time.
Turning to `CCCS(=O)(=O)Nc1ccc(F)c(C(=O)c2c[nH]c3ncc(-c4ccc(Cl)cc4)cc23)c1F` [VEMURAFENIB], the Kd was > 30 µM (inactive) in assay [1]; > 30 µM (inactive) in assay [2]; > 30 µM (inactive) in assay [3]; > 30 µM (inactive) in assay [4]; 1.42 µM (active) in assay [5]; > 30 µM (inactive) in [6]. In addition, the Kd in assay [7] was > 30 µM (inactive); in assay [8], > 30 µM (inactive); in assay [9], 2.08 µM (active); in assay [10], > 30 µM (inactive).
As to `Cn1cc(-c2ccc3nnc(C(F)(F)c4ccc5ncccc5c4)n3n2)cn1` [JNJ-38877605], the Kd in assay [1], in assay [2], in assay [3], in assay [4], in assay [5] and in assay [6] was > 30 µM (inactive) each time. Besides, the Kd in [7], in assay [8], in assay [9] and in [10] was > 30 µM (inactive) throughout.
For `Cc1cc([C@@H](C)Nc2ccccc2C(=O)O)c2nc(N3CCOCC3)cc(=O)n2c1` [AZD-6482], the Kd in assay [1], in [2], in assay [3], in [4], in [5] and in assay [6] was > 30 µM (inactive) in each case. For the same compound, the Kd in [7], in [8], in assay [9] and in [10] was > 30 µM (inactive) in each case.
With `COc1cc(CCc2cc(NC(=O)c3ccc(N4C[C@@H](C)N[C@@H](C)C4)cc3)n[nH]2)cc(OC)c1` [AZD-4547], the Kd in [1] was > 30 µM (inactive); in assay [2] it was 12.9 µM (active); in assay [3], > 30 µM (inactive); in assay [4], > 30 µM (inactive); in [5] it was > 30 µM (inactive); in assay [6], > 30 µM (inactive). The Kd in assay [7], in assay [8], in assay [9] and in assay [10] was > 30 µM (inactive) throughout.
In the case of `CNC(=O)c1ccc(-c2cnc3ncc(Cc4ccc5ncccc5c4)n3n2)cc1F` [CAPMATINIB], the Kd in assay [1], in [2], in assay [3], in assay [4], in assay [5] and in assay [6] was > 30 µM (inactive) each time. In addition, the Kd in [7], in [8], in [9] and in [10] was > 30 µM (inactive) each time.
